According to patent US20230312587A1, “PTERIDINONE COMPOUNDS AND USES THEREOF” (Vertex Pharmaceutical Incorporated, priority 2018, published 2023):

Key:
[1] = system: Colo-205 cells; assay: Calcium flux assay (FLIPR Calcium 5); type: cell-based; settings: Homo sapiens, COLO 205, 0.6 h, FLIPR Calcium 5, measured over 36 minutes
Method: Compounds described herein induced ER stress by causing intracellular calcium flux. Calcium flux was measured in Colo-205 cells using the FLTPR® Calcium 5 Assay Kit according to manufacter's protocol (Molecular Devices, Cat. #R8186) on a FLIPR3 system (Molecular Devices). Calcium flux is measured over 36 minutes. The Colo-205 calcium flux assay data are summarized in Table 47: A<0.6 μM; 0.6 μM≤B<2.0 μM; 2.0 μM≤C<10.0 μM; D≥10.0 μM.

[2] = molecular target: HEK293 membranes over-expressing WFS-1 (Homo sapiens (Human), UniProt O76024); assay: Radioligand displacement assay (tritiated Compound 136 probe); type: binding; settings: displacement of tritiated Compound 136
Method: Cell pellets were re-suspended in 15 times packed cellular volume in 4° C. hypotonic lysis buffer (10 mM HEPES, pH 7.5 containing 1×Protease inhibitor, 0.5 mM EDTA and 2 mM DTT). Re-suspended cells were homogenized with 6-8 strokes in a dounce homogenizer kept on ice. Lysates were centrifuged at 500×G for 15 minutes at 4° C. without brake to decelerate rotor. Following centrifugation, remove the supernatant to a fresh tube and place on ice (Supernatant 1). Repeat the above steps on the lysed cell pellet using 0.5 the original volume of hypotonic lysis buffer and remove the 500× G supernatant (Supernatant 2) and combine with Supernatant 1. Transfer the combined supernatants to a 45-Ti ultracentrifuge tube and centrifuge at 100,000× G for 30 minutes. Following ultracentrifugation, carefully remove the supernatant and discard. Resuspend the 100,000× G pellet in cold resuspension buffer (10 mM HEPES, pH 7.5, 300 mM NaCl containing 1× Protease inhibitor, 1× EDTA and 2 mM DTT). Centrifuge sample at 500× G for 10 minutes with no brake and remove any cloudy, flocculent material. Resuspend pellet in resuspension buffer to approximately 2 mg/mL of protein concentration for use in radioligand binding assay and immunoblotting.
The binding affinities of compounds were determined by measuring the competitive displacement of a tritiated Compound 136 probe from purified HEK293 membranes over-expressing WFS-1. The data for the radioligand displacement assay are summarized in Table 47: A<0.06 μM; 0.06 μM≤B<0.6 μM; 0.6 μM≤C<3.0 μM; D≥3.0 μM.
The probe Kd was determined by titrating tritiated probe under the standard assay conditions plus and minus excess unlabeled probe and fitting the resulting data to a “One site—Total and nonspecific binding” model in Graphpad Prism, version 6.0, San Diego, CA, US. Initially, 0.25 μl of compound dissolved in DMSO at varying concentrations was dispensed to a 384 well plate. Membrane and probe were both prepared at 2× their final concentration in 1× assay buffer as described above. 25 μL of membrane was added to the wells and incubated for 10 minutes. 25 μL of diluted probe was then added to the wells. The assay was incubated for 90 minutes at room temperature. The entire assay volume was then transferred to Millipore GF/B 384-well plates pretreated with 15 μL 0.5% PEI. The filter plates were washed 3× with 75 μL 25 mM TRIS, ph7.5, 0.1% BSA and then dried overnight. Following addition of 45 μL UltimaGold scintillant, the samples were counted in a Perkin Elmer Topcount. The radioactivity remaining is a measure of bound probe. From the bound probe vs concentration of compound titration curve, the IC50 is determined by fitting the data to a standard 3 parameter IC50 model using either Graphpad Prism, version 6.0, San Diego, CA, US, or using GeneData Analyzer, Basel, Switzerland.

[3] = system: β-catenin-TCF-mediated reporter transcription activity in Colo 205 cells; assay: Colo 205 reporter assay (TCF/LEF luciferase); type: cell-based; settings: Homo sapiens, COLO 205, 5 h, Colo 205 TCF/LEF luciferase reporter, five hours after addition of compound; read-out: TCF reporter Colo205 IC50
In short: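 Luciferase signal from a TCF/LEF-driven reporter, stably integrated in Colo 205 colon cancer cells, was measured 5 h after compound addition.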

Sequence of HEK293 membranes over-expressing WFS-1 (O76024 whole entry): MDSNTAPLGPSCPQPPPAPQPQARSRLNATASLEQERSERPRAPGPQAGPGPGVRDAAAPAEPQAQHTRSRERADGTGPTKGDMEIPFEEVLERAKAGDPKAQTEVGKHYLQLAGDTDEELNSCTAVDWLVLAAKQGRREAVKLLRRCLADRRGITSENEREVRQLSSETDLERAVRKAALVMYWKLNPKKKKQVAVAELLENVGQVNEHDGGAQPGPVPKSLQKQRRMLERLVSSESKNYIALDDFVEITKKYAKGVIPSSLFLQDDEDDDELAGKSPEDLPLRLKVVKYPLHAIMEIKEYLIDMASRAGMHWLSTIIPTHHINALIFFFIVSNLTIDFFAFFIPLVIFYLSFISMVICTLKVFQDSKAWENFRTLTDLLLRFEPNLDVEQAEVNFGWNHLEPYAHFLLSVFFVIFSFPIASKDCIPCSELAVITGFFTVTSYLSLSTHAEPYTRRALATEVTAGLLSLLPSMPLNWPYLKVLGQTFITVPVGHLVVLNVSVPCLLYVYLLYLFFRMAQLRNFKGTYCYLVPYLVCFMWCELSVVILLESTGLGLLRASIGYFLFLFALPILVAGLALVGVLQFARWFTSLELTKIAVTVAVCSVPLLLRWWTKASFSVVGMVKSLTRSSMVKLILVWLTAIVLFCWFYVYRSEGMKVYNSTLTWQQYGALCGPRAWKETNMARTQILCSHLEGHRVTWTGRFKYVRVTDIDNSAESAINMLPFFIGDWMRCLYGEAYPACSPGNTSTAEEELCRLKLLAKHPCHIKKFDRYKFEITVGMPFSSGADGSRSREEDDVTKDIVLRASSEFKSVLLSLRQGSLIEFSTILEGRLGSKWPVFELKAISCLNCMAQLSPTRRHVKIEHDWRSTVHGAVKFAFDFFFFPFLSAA

| Compound | EC50 [1] [µM] | IC50 [2] [µM] | IC50 [3] [µM] |
| --- | --- | --- | --- |
| Cc1nc(N[C@@H](C)c2cnn(Cc3ccc(C(F)(F)F)nc3)c2)nc2c1NC(=O)[C@H](C)N2C [Compound 216, (7S)-4,7,8-Trimethyl-2-(((S)-1-(1-((6-(trifluoromethyl)pyridin-3-yl)methyl)-1H-pyrazol-4-yl)ethyl)amino)-7,8-dihydropteridin-6(5H)-one] | ≥ 10 | ≥ 3 | ≥ 5 |
| Cc1nc(N[C@H]2C[C@@H](CNc3cnc(C(F)(F)F)cn3)C2)nc2c1NC(=O)[C@H](C(C)C)N2C [Compound 711, (S)-7-isopropyl-4,8-dimethyl-2-((cis-3-(((5-(trifluoromethyl)pyrazin-2-yl)amino)methyl)cyclobutyl)amino)-7,8-dihydropteridin-6(5H)-one] | < 0.6 | < 0.06 | < 0.3 |
| Cc1nc(N[C@H]2C[C@@H](Nc3ccc(C#N)cn3)C2)nc2c1NC(=O)[C@H](C(C)C)N2C [Compound 716, 6-((cis-3-(((S)-7-isopropyl-4,8-dimethyl-6-oxo-5,6,7,8-tetrahydropteridin-2-yl)amino)cyclobutyl)amino)nicotinonitrile] | 0.6 to 2 | < 0.06 | < 0.3 |
| Cc1nc(N[C@H]2C[C@@H](Nc3ncc(C#N)cn3)C2)nc2c1NC(=O)[C@H](C(C)C)N2C [Compound 717, 2-((cis-3-(((S)-7-isopropyl-4,8-dimethyl-6-oxo-5,6,7,8-tetrahydropteridin-2-yl)amino)cyclobutyl)amino)pyrimidine-5-carbonitrile] | 2 to 10 | 0.06 to 0.6 | 1 to 5 |
| Cc1nc(N[C@H]2C[C@@H](Cn3nccc3C(F)(F)F)C2)nc2c1NC(=O)[C@H](COC(C)(C)C)N2C [Compound 723, (S)-7-(tert-butoxymethyl)-4,8-dimethyl-2-((cis-3-((5-(trifluoromethyl)-1H-pyrazol-1-yl)methyl)cyclobutyl)amino)-7,8-dihydropteridin-6(5H)-one] | 0.6 to 2 | 0.06 to 0.6 | < 0.3 |

Further lines, results first:

| EC50 [1] [µM] | IC50 [2] [µM] | IC50 [3] [µM] | Compound |
| --- | --- | --- | --- |
|  | 0.06 to 0.6 | < 0.3 | Cc1nc(N[C@H]2C[C@H](Oc3cc(F)c(F)c(F)c3)C2)nc2c1NC(=O)[C@H](CO)N2C [Compound 677, (S)-7-(hydroxymethyl)-4,8-dimethyl-2-((trans-3-(3,4,5-trifluorophenoxy)cyclobutyl)amino)-7,8-dihydropteridin-6(5H)-one] |
| < 0.6 | < 0.06 | < 0.3 | CO[C@H](C)[C@H]1C(=O)Nc2c(C)nc(N[C@H]3C[C@H](Oc4ccc(C(F)(F)F)nc4)C3)nc2N1C [Compound 684, (S)-7-((R)-1-methoxyethyl)-4,8-dimethyl-2-((trans-3-((6-(trifluoromethyl)pyridin-3-yl)oxy)cyclobutyl)amino)-7,8-dihydropteridin-6(5H)-one] |
| < 0.6 | < 0.06 | < 0.3 | Cc1nc(N[C@H]2C[C@H](Oc3ccc(C(F)(F)F)nc3)C2)nc2c1NC(=O)[C@H](C(C)C)N2C [Compound 685, (S)-7-isopropyl-4,8-dimethyl-2-((trans-3-((6-(trifluoromethyl)pyridin-3-yl)oxy)cyclobutyl)amino)-7,8-dihydropteridin-6(5H)-one] |
| < 0.6 | < 0.06 | < 0.3 | CC[C@H]1C(=O)Nc2c(C)nc(N[C@H]3C[C@H](Oc4ccc(C(F)(F)F)nc4)C3)nc2N1C [Compound 686, (S)-7-ethyl-4,8-dimethyl-2-((trans-3-((6-(trifluoromethyl)pyridin-3-yl)oxy)cyclobutyl)amino)-7,8-dihydropteridin-6(5H)-one] |
